Test results as given in patent US8834843B2, “Imaging method” (GE Healthcare Limited, priority 2007, dated 2014).
Numbered stars: 1 amine (or outer) side, 2 acyl side, 3 side chain; on linkers, the order of the positions; unused ones are H or OH. Bridge positions count the residues as written; N and C are the ends. Side chains are listed from the residue outwards. Peptide text beside a SMILES is read from it. * marks the point of attachment. X3 = CC[N+]1=C(/C=C/C=C/C=C2/N(CCCCCC(=O)*)c3ccc4c(S(=O)(=O)O)cc(S(=O)(=O)O)cc4c3C2(C)C)C(C)(C)c2c1ccc1c(S(=O)(=O)O)cc(S(=O)(=O)O)cc21; X4 = CC1=[N+]([O-])[Tc]23(=[O])(=[O])[N](CCC(CCN*)CC[N]2C(C)(C)C(C)=[N+]3[O-])C1(C)C; Glutaryl = O=C(CCCC(=O)[*:2])[*:1]

What was measured:
[1] = tested on: Activated human hepatic stellate cells, LX-2; test: Binding to activated human hepatic stellate cells LX-2
Method: Activated human hepatic stellate cells, LX-2 (provided by Prof. Scott L. Friedman, Mount Sinai School of Medicine, New York), were cultured in 12-well plates (Nunc) to confluence in Dulbeccos Modified Eagels Medium containing 10% FBS, streptomycin and glutamine. The cells were washed twice in a cold buffer containing 50 mM Tris, pH 7.4, 150 mM NaCl, 5 mM MnCl2, 1 mM CaCl2 and 0.01% BSA. The cells were further incubated in the buffer containing a trace amount of labelled compound (either 0.1 nM ^125I Compound 6 or 0.1 nM ^125I-echistatin) together with various concentrations of cold compound for 60 min at 4° C. with shaking. Following incubation, the unbound material was removed by washing the cells 3 times with cold buffer. The cells were detached from the wells by adding 0.1M NaOH and transferred to a tube to be counted in a gamma-counter (Packard). FIG. 2 illustrates the observed activity values.

EA-Hy926 membranes = test: Competitive binding assay with 125I-echistatin on EA-Hy926 membranes; set-up: species or system human
Method: The inhibition constant of Compound 6 was measured using a previously-described membrane binding assay (Indrevoll et al, Bioorg & Med Chem Lett, 2006, 16, 6190-6193).
In brief, membranes from the human endothelial adenocarcinoma cell line EA-Hy926 were prepared and the Kd calculated for the purified membrane fraction. A competitive binding assay was then established to measure inhibition constants for cold Compound 6. ^125I-echistatin was used as the labelled ligand and cold echistatin as a reference standard.
A total of sixteen dilutions of cold test compound (either cold echistatin or cold Compound 6) were prepared and mixed with a combination of ^125I-echistatin and membrane prior to incubation for 1 hour at 37° C. Following several washes, the bound material was harvested on a filter using a Skatron micro harvester. The filterspots were finally excised and counted in a Packard γ-counter.
The inhibition constants for Compound 3 and Compound 8 were determined using the method described in Example 1. FIG. 3 illustrates binding of ^125I-echistatin versus cold Compound 3, Compound 8 and echistatin on EA-Hy926 membranes.

[2] = tested on: fibrogenic livers in BDL model; test: Liver uptake in BDL vs sham rats at 15 days post-op, vs negative control; assay type: in vivo, rat; settings: one hour post-injection
Method: On the appropriate day post surgery BDL and sham animals were removed and put under isoflurane anaesthesia, then each animal was injected with 0.3 ml intravenously (i.v.) via tail vein (˜3MBq). At the appropriate time point post-injection of the test item, each animal was re-anaesthetised with isoflurane, sacrificed by cervical dislocation weighed and the weight recorded via a barcode scanning system. Each animal was dissected and the following organs and tissues were removed and counted using BASIL counter protocol 40 or manual counting:
The BDL and sham animal models were set up as described in Example 3. At 15 days post-operatively, one of Compound 3, Compound 8 or a negative control was administered to each animal and liver uptake assessed as described in Example 3.

N=C(N)NCCC[C@@H]1NC(=O)[C@@H]2CSSC[C@H](NC(=O)[C@H](CC(=O)O)NC(=O)CNC1=O)C(=O)N[C@@H](Cc1ccccc1)C(=O)N[C@H](C(=O)NCCOCCOCCOCCNC(=O)COCC(N)=O)CSCC(=O)N[C@@H](CCCCNC(=O)c1cccc([123I])c1)C(=O)N2 [Compound 6]
Binding to activated human hepatic stellate cells (in words) [1]: binding specifically | EC50 ([1]; 0.1 nM 125I labelled compound plus cold compound, 60 min at 4° C., read-out: EC50 in the LX-2 cell assay): ~1 nM | Binding to EA-Hy926 membranes (in words) (EA-Hy926 membranes): binding specifically | Ki (EA-Hy926 membranes; cold compound vs 125I-echistatin, 1 hour at 37° C., read-out: Ki in the EA-Hy926 membrane assay): ~10 nM

CC[N+]1=C(/C=C/C=C/C=C2/N(CCCCCC(=O)NCCCC[C@@H]3NC(=O)CSC[C@@H](C(=O)NCC(=O)N[C@@H](CCCCNC(=O)CCCC(=O)NCCC4CC[N]5C(C)(C)C(C)=[N+]([O-])[Tc]56(=[O])(=[O])[N](CC4)C(C)(C)C(C)=[N+]6[O-])C(N)=O)NC(=O)[C@H](CCCNC(=N)N)NC(=O)[C@@H]4CSSC[C@H](NC3=O)C(=O)NCC(=O)N[C@@H](CC(=O)O)C(=O)N[C@@H](Cc3ccccc3)C(=O)N4)c3ccc4c(S(=O)(=O)O)cc(S(=O)(=O)O)cc4c3C2(C)C)C(C)(C)c2c1ccc1c(S(=O)(=O)O)cc(S(=O)(=O)O)cc21 (some centres unmarked) [negative control, reference compound] ({CH2CO}-K(X3)CGDFCRCGK([Glutaryl-X4])-NH2; disulfide 2-6; thioether N-8)
Liver retention/uptake in BDL compared to sham animals (in words) [2]: no significant difference
